Assays:
[1] = system: AMPA receptor subunit GluR2; assay: CDKL5 gene silencing experiment, Western blotting of GluR2 and GluR2 phospho-Ser880 in primary hippocampal cultures; format: cell-based, mouse; details: CDKL5-silenced hippocampal neurons
Cdkl5 knockout mice = assay: Rotarod assessment of motor coordination in Cdkl5 knockout mice; format: in vivo
From the text: The generation of Cdkl5 knockout mice and rotarod assessment of motor coordination could be carried out following the method described in Wang, I. -T. J et al. (2012) PNAS 109: 21516-21521, as follows.

[2] = system: AMPA receptor subunit GluR2; assay: CDKL5 gene silencing experiment, immunofluorescence of cell-surface expressed GluR2 in primary hippocampal cultures; format: cell-based, mouse; details: 10 uM on alternate days from DIV11 to DIV18 (DIV11-13-15-17); CDKL5-silenced hippocampal neurons
[3] = 10 uM on alternate days from DIV11 to DIV18 (DIV11-13-15-17)
[4] = 10 μM on alternate days from DIV15-18 (DIV15-17)

| SMILES | effect of CDKL5 silencing on expression of the AMPA receptor subunit GluR2 (Western blotting) [1, 3] | effect of CDKL5 silencing on phosphorylated GluR2 (phosphorylation at serine-880) (Western blotting) [1, 3] | effect of CDKL5 silencing on expression of the AMPA receptor subunit GluR2 (Western blotting) [1, 4] | effect of CDKL5 silencing on phosphorylated GluR2 (phosphorylation at serine-880) (Western blotting) [1, 4] | time spent on the rotarod before falling (Cdkl5 knockout mice; Cdkl5 knockout mice treated before onset of motor deficits, at 3 weeks of age, relative to untreated mice) | rotarod scores (motor coordination and balance) (Cdkl5 knockout mice; Cdkl5 knockout mice treated from 6 weeks of age for 4 weeks, after onset of motor deficits, versus vehicle) | effect of CDKL5 silencing on expression of GluR2 in terms of number of puncta (immunofluorescence) [2] |
| --- | --- | --- | --- | --- | --- | --- | --- |
| CN1c2ccccc2C(NCCCCOCC(=O)O)c2ccc(Cl)cc2S1(=O)=O.Cl (stereo not drawn) [TIOX, 2-(4-((3-chloro-6-methyl-5,5-dioxido-6,11-dihydrodibenzo[c,f][1,2]thiazepin-11-yl)amino)butoxy)acetic acid, HCl salt] | reversed the effect of CDKL5 silencing | reversed the effect of CDKL5 silencing | reversed the effect of CDKL5 silencing | reversed the effect of CDKL5 silencing |  |  |  |
| CN1c2ccccc2C(NCCCCCCC(=O)O)c2ccc(Cl)cc2S1(=O)=O (stereo not drawn) [Tianeptine, 7-[(3-chloro-6,1′-dihydro-6-methyl-dibenzo[c,f][1,2]thiazepin-11-yl)amino]heptanoic acid S,S-dioxide] |  |  |  |  | increase the time spent on the rotarod before falling | higher than scores for Cdkl5 knockout mice given vehicle but are below WT values |  |
| CN1c2ccccc2C(NCCCCCCC(=O)O)c2ccc(Cl)cc2S1(=O)=O.O=S(=O)(O)O (stereo not drawn) [tianeptine sulphate] | reversed the effect of CDKL5 silencing | reversed the effect of CDKL5 silencing |  |  |  |  | reversed the effect of CDKL5 silencing |

From patent publication US20220265676A1, “[…] DIBENZO[…] COMPOUNDS FOR USE IN THE THERAPY OF CDKL5 DISORDER” (Healx Limited, priority 2016, published 2022)
